Target: human recombinant PAK1-KD protein (Homo sapiens, UniProt Q13153)
Experiment: PAK1-KD (Kinase Domain) IC50 Zlyte Assay (FRET peptide substrate phosphorylation)
Conditions: Z'-LYTE, Biological Example 1

Sequence of human recombinant PAK1-KD protein (Q13153 270-521 limits assumed): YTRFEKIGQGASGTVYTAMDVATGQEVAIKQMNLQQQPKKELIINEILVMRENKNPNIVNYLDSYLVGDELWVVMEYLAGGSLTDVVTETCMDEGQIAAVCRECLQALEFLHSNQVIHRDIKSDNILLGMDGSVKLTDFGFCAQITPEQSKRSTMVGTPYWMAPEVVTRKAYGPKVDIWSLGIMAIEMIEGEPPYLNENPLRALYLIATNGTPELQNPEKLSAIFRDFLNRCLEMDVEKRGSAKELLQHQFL

Row | Structure (SMILES) | Ki [µM]
1 | CCNc1ncc2cc(-c3ccc(-c4cccc(C)n4)cc3C)c(=O)n(CC(=O)N3CCNCC3)c2n1 [Example I-93, 2-(Ethylamino)-6-[2-methyl-4-(6-methyl-2-pyridyl)phenyl]-8-(2-oxo-2-piperazin-1-yl-ethyl)pyrido[2,3-d]pyrimidin-7-one] | 0.0291
2 | CCNc1ncc2cc(-c3ccc(-c4cccc(C)n4)cc3C)c(=O)n(CCCC(=O)NC)c2n1 [Example I-74, 4-[2-(Ethylamino)-6-[2-methyl-4-(6-methyl-2-pyridyl)phenyl]-7-oxo-pyrido[2,3-d]pyrimidin-8-yl]-N-methyl-butanamide] | 0.0155
3 | Cc1cccc(-c2ccc(-c3cc4cnc(NC5COC5)nc4n(CCCO)c3=O)c(C)c2)n1 [Example I-168, 8-(3-hydroxypropyl)-6-[2-methyl-4-(6-methyl-2-pyridyl)phenyl]-2-(oxetan-3-ylamino)pyrido[2,3-d]pyrimidin-7-one] | 0.0157
4 | CCNc1ncc2cc(-c3ccc(-c4cncc(C)n4)cc3Cl)c(=O)n(CCC3CCCN3)c2n1 (single isomer, unassigned) [Example I-20] | 0.0204
5 | Cc1cccc(-c2ccc(-c3cc4cnc(NC5COC5)nc4n(CCS(N)(=O)=O)c3=O)c(C)c2)n1 [Example I-166] | 0.017
6 | CNc1ncc2cc(-c3ccc(-c4cncc(C)n4)cc3Cl)c(=O)n(CCN3CCOCC3)c2n1 [Example I-158, 6-[2-chloro-4-(6-methylpyrazin-2-yl)phenyl]-2-(methylamino)-8-(2-morpholinoethyl)pyrido[2,3-d]pyrimidin-7-one] | 0.0782
7 | CCNc1ncc2cc(-c3ccc(-c4cncc(C)n4)cc3Cl)c(=O)n(C3COC4(CNC4)C3)c2n1 (centres unmarked) [Example I-58, 6-(2-Chloro-4-(6-methylpyrazin-2-yl)phenyl)-2-(ethylamino)-8-(5-oxa-2-azaspiro[3.4]octan-7-yl)pyrido[2,3-d]pyrimidin-7(8H)-one] | 0.0711
8 | CNc1ncc2cc(-c3ccc(-c4cccc(CO)n4)cc3Cl)c(=O)n(C[C@@H]3CNCCO3)c2n1 [Example I-195, 6-[2-Chloro-4-[6-(hydroxymethyl)-2-pyridyl]phenyl]-2-(methylamino)-8-[[(2S)-morpholin-2-yl]methyl]pyrido[2,3-d]pyrimidin-7-one] | 0.0354
9 | CCNc1ncc2cc(-c3ccc(-c4cncc(C)n4)cc3Cl)c(=O)n(C3CCN(C(=O)CN)C3)c2n1 (centres unmarked) [Example I-28, 8-(1-(2-Aminoacetyl)pyrrolidin-3-yl)-6-(2-chloro-4-(6-methylpyrazin-2-yl)phenyl)-2-(ethylamino)pyrido[2,3-d]pyrimidin-7(8H)-one] | 0.0257
10 | CCNc1ncc2cc(-c3ccc(-c4cccc(C)n4)cc3C)c(=O)n(CCCCO)c2n1 [Example I-73, 2-(Ethylamino)-8-(4-hydroxybutyl)-6-[2-methyl-4-(6-methyl-2-pyridyl)phenyl]pyrido[2,3-d]pyrimidin-7-one] | 0.0189
11 | CNc1ncc2cc(-c3ccc(-c4cccc(C)n4)cc3Cl)c(=O)n(CC3CNCCS3(=O)=O)c2n1 (single isomer, unassigned) [I-197 Isomer A, 6-[2-chloro-4-(6-methyl-2-pyridyl)phenyl]-8-[(1,1-dioxo-1 4-thiazinan-2-yl)methyl]-2-(methylamino)pyrido[2,3-d]pyrimidin-7-one] | 0.0161
12 | CNc1ncc2cc(-c3ccc(-c4cncc(C)n4)cc3Cl)c(=O)n(CC(=O)N3CCNCC3)c2n1 [Example I-84, 6-(2-Chloro-4-(6-methylpyrazin-2-yl)phenyl)-2-(methylamino)-8-(2-oxo-2-(piperazin-1-yl)ethyl)pyrido[2,3-d]pyrimidin-7(8H)-one] | 0.0592
13 | CNc1ncc2cc(-c3ccc(-c4cncc(C)n4)cc3Cl)c(=O)n(CC(=O)N3C[C@@H]4C[C@H]3CN4)c2n1 [Example I-155, 6-[2-Chloro-4-(6-methylpyrazin-2-yl)phenyl]-8-[2-[(1S,4S)-2 5-diazabicyclo[2.2.1]heptan-2-yl]-2-oxo-ethyl]-2-(methylamino)pyrido[2,3-d]pyrimidin-7-one] | 0.0392
14 | CNc1ncc2cc(-c3ccc(-c4cncc(C)n4)cc3Cl)c(=O)n(CC(=O)N3CC[C@@H](N)C3)c2n1 [Example I-152, 8-[2-[(3R)-3-Aminopyrrolidin-1-yl]-2-oxo-ethyl]-6-[2-chloro-4-(6-methylpyrazin-2-yl)phenyl]-2-(methylamino)pyrido[2,3-d]pyrimidin-7-one] | 0.0211
15 | CCc1cc(-c2cccc(C)n2)ccc1-c1cc2cnc(NC3COC3)nc2n(C[C@@H]2CNCCO2)c1=O [Example I-194] | 0.0265
16 | CCNc1ncc2cc(-c3ccc(-c4cncc(C)n4)cc3Cl)c(=O)n(CCC(N)=O)c2n1 [Example I-69, 3-[6-[2-chloro-4-(6-methylpyrazin-2-yl)phenyl]-2-(ethylamino)-7-oxo-pyrido[2,3-d]pyrimidin-8-yl]propanamide] | 0.103
17 | CCNc1ncc2cc(-c3ccc(-c4cccc(C)n4)cc3Cl)c(=O)n(CC(=O)N3CCOCC3)c2n1 [Example I-120, 6-[2-chloro-4-(6-methyl-2-pyridyl)phenyl]-2-(ethylamino)-8-(2-morpholino-2-oxo-ethyl)pyrido[2,3-d]pyrimidin-7-one] | 0.0208

These reach a lower Ki. Values come first.

Row | Ki [µM] | Structure (SMILES)
18 | 0.0015 | CNc1ncc2cc(-c3ccc(-c4cccc(C)n4)cc3Cl)c(=O)n(CCC3CNCCO3)c2n1 (single isomer, unassigned) [Example I-124, 6-(2-Chloro-4-(6-methylpyridin-2-yl)phenyl)-2-(methylamino)-8-(2-(morpholin-2-yl)ethyl)pyrido[2,3-d]pyrimidin-7(8H)-one]
19 | 0.0014 | CNc1ncc2cc(-c3ccc(-c4cccc(C)n4)cc3Cl)c(=O)n(CCOCCN)c2n1 [Example I-96, 8-[2-(2-Aminoethoxy)ethyl]-[2-chloro-4-(6-methyl-2-pyridyl)phenyl]-2-(methylamino)pyrido[2,3-d]pyrimidin-7-one]
20 | 0.0005 | Cc1cccc(-c2ccc(-c3cc4cnc(NC5COC5)nc4n(C[C@H]4CC[C@H](N)CC4)c3=O)c(Cl)c2)n1 [Example I-33, 8-(((1r,4r)-4-aminocyclohexyl)methyl)-6-(2-chloro-4-(6-methylpyridin-2-yl)phenyl)-2-(oxetan-3-ylamino)pyrido[2,3-d]pyrimidin-7(8H)-one]
21 | 0.004 | CCNc1ncc2cc(-c3ccc(-c4cccc(C)n4)cc3Cl)c(=O)n(CC(=O)N3CCNCC3)c2n1 [Example I-34, 6-[2-Chloro-4-(6-methyl-2-pyridyl)phenyl]-2-(ethylamino)-8-(2-oxo-2-piperazin-1-yl-ethyl)pyrido[2,3-d]pyrimidin-7-one]
22 | 0.014 | CNc1ncc2cc(-c3ccc(-c4cncc(C)n4)cc3Cl)c(=O)n(CC(=O)N[C@H]3CCNC3)c2n1 [Example I-142, 2-[6-[2-chloro-4-(6-methylpyrazin-2-yl)phenyl]-2-(methylamino)-7-oxo-pyrido[2,3-d]pyrimidin-8-yl]-N-[(3S)-pyrrolidin-3-yl]acetamide]
23 | 0.0145 | CCNc1ncc2cc(-c3ccc(-c4cncc(C)n4)cc3Cl)c(=O)n(CC[C@@H]3[C@H]4CNC[C@@H]34)c2n1 [Example I-65, 8-(2-((1R,5S,6s)-3-Azabicyclo[3.1.0]hexan-6-yl)ethyl)-6-(2-chloro-4-(6-methylpyrazin-2-yl)phenyl)-2-(ethylamino)pyrido[2,3-d]pyrimidin-7(8H)-one]
24 | 0.0124 | CNc1ncc2cc(-c3ccc(-c4cncc(C)n4)cc3Cl)c(=O)n(CC(=O)N[C@@H]3CCNC3)c2n1 [Example I-151, 2-[6-[2-Chloro-4-(6-methylpyrazin-2-yl)phenyl]-2-(methylamino)-7-oxo-pyrido[2,3-d]pyrimidin-8-yl]-N-[(3R)-pyrrolidin-3-yl]acetamide]
25 | 0.0009 | CCNc1ncc2cc(-c3ccc(-c4cccc(C)n4)cc3Cl)c(=O)n(CCN3CCNCC3)c2n1 [Example I-66, 6-(2-Chloro-4-(6-methylpyridin-2-yl)phenyl)-2-(ethylamino)-8-(2-(piperazin-1-yl)ethyl)pyrido[2,3-d]pyrimidin-7(8H)-one]
26 | 0.0041 | CCNc1ncc2cc(-c3ccc(-c4cncc(C)n4)cc3Cl)c(=O)n(CCC3CCNC3)c2n1 (centres unmarked) [Example I-57, 6-(2-Chloro-4-(6-methylpyrazin-2-yl)phenyl)-2-(ethylamino)-8-(2-(pyrrolidin-3-yl)ethyl)pyrido[2,3-d]pyrimidin-7(8H)-one]
27 | 0.0096 | CNc1ncc2cc(-c3ccc(-c4cncc(C)n4)cc3Cl)c(=O)n(CCCCCN)c2n1 [Example I-138, 8-(5-aminopentyl)-6-[2-chloro-4-(6-methylpyrazin-2-yl)phenyl]-2-(methylamino)pyrido[2,3-d]pyrimidin-7-one]
28 | 0.009 | Cc1cncc(-c2ccc(-c3cc4cnc(NC5COC5)nc4n(C[C@@H]4CNCCO4)c3=O)c(Cl)c2)n1 [Example I-149, 6-[2-Chloro-4-(6-methylpyrazin-2-yl)phenyl]-8-[[(2S)-morpholin-2-yl]methyl]-2-(oxetan-3-ylamino)pyrido[2,3-d]pyrimidin-7-one]
29 | 0.0016 | Cc1cccc(-c2ccc(-c3cc4cnc(NC(C)C)nc4n(CCN4CCNCC4)c3=O)c(Cl)c2)n1 [Example I-68, 6-(2-Chloro-4-(6-methylpyridin-2-yl)phenyl)-2-(isopropylamino)-8-(2-(piperazin-1-yl)ethyl)pyrido[2,3-d]pyrimidin-7(8H)-one]
30 | 0.0033 | CCNc1ncc2cc(-c3ccc(-c4cccc(C)n4)cc3C)c(=O)n(CCOCCN)c2n1 [Example I-76, 8-[2-(2-Aminoethoxy)ethyl]-2-(ethylamino)-6-[2-methyl-4-(6-methyl-2-pyridyl)phenyl]pyrido[2,3-d]pyrimidin-7-one]
31 | 0.012 | CNc1ncc2cc(-c3ccc(-c4cccc(C)n4)cc3Cl)c(=O)n(CC3(C#N)CCNCC3)c2n1 [Example I-169, 4-[[6-[2-chloro-4-(6-methyl-2-pyridyl)phenyl]-2-(methylamino)-7-oxo-pyrido[2,3-d]pyrimidin-8-yl]methyl]piperidine-4-carbonitrile]
32 | 0.00092 | CNc1ncc2cc(-c3ccc(-c4cccc(C)n4)cc3Cl)c(=O)n(CC[C@H]3OC[C@H](N)CO3)c2n1 [Example I-137, 8-[2-(5-amino-1,3-dioxan-2-yl)ethyl]-6-[2-chloro-4-(6-methyl-2-pyridyl)phenyl]-2-(methylamino)pyrido[2,3-d]pyrimidin-7-one]

— patent publication US20150031674A1, “SERINE/THREONINE KINASE INHIBITORS” (GENENTECH, INC., priority 2013, published 2015)
